Laboratory results reported in PMC8936486 (PLoS Biology, 2022).

Tests used:
MjFtsZ = molecular target: T1, MjFtsZ (Methanocaldococcus jannaschii, UniProt Q57816); experiment: light scattering of polymer assembly; type: biochemical; settings: 5 mM BeF3- with GTP, 55 °C; stabilizes polymers, repolymerization after disassembly
T1 construct: gene ftsZ1; full-length, nucleotide-devoid (apo)

SaFtsZf [1] = molecular target: T2, SaFtsZf (Staphylococcus aureus, UniProt P0A029); experiment: light scattering of polymer assembly; type: biochemical; settings: 10 mM MgCl2, pH 6.5, 25 °C
T2 construct: gene ftsZ
T2 sequence (P0A029 1-390): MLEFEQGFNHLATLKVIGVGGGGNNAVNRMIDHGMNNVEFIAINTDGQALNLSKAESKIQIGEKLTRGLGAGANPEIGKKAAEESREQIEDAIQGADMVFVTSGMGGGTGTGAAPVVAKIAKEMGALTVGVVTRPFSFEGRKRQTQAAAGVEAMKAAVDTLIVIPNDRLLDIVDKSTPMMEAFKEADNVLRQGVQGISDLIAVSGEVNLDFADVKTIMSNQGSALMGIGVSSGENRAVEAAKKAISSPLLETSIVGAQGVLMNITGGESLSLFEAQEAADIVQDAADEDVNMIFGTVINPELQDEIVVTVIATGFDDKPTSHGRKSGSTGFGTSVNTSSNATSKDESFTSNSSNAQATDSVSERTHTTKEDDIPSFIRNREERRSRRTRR

SaFtsZf [2] = molecular target: T2, SaFtsZf; experiment: electron microscopy of polymers; type: biochemical; settings: MES assembly buffer, 25 °C
[3] = molecular target: the molecule itself; experiment: right angle light scattering; self-assembly of full-length FtsZ with 1 mM GTP and MgCl2 in MES assembly buffer; SaFtsZf 49 uM and EcFtsZ 25 uM at 25 C, apo-MjFtsZ 15 uM at 55 C; SaFtsZf polymers also seen by electron microscopy

In the case of [F][Be-]([F])[F] [BeF3^−], the “light scattering of polymer assembly” value (MjFtsZ) is reported as “Repolymerization with BeF3^− after disassembly was observed for MjFtsZ” and the “light scattering of polymer assembly” value (SaFtsZf [1]; 1-5 mM BeF3- with 1 mM GTP, stabilizes polymers) is reported as “Assembly of full-length SaFtsZ is stabilized by BeF3^−”.

With Nc1nc2c(ncn2[C@@H]2O[C@H](COP(=O)(O)CP(=O)(O)OP(=O)(O)O)[C@@H](O)[C@H]2O)c(=O)[nH]1 [GMPCPP, guanosine-5′-[(α,β)-methyleno]triphosphate] the “electron microscopy of polymers” value (SaFtsZf [2]) was “Polymers formed with GMPCPP”.

Nc1nc2c(ncn2[C@@H]2O[C@H](COP(=O)(O)OP(=O)(O)OP(=O)(O)O)[C@@H](O)[C@H]2O)c(=O)[nH]1 [GTP] was tested, and the “light scattering of polymer assembly” value (SaFtsZf [1]; 1 mM GTP) was “The sample with GTP depolymerized upon nucleotide consumption (blue line)”.

B1: full-length FtsZ from S. aureus (natural protein, Staphylococcus aureus Mu50/ATCC 700699, UniProt P0A029 1-390, looked up)
chain: T2 sequence (P0A029 1-390)
notes: full-length FtsZ from methicillin-resistant S. aureus Mu50/ATCC 700699; also called SaFtsZf; full-length SaFtsZ
B1: binds [3].

B2: nucleotide-devoid, full-length FtsZ from M. jannaschii (natural protein, Methanocaldococcus jannaschii, UniProt Q57816 1-364, looked up)
chain: MKFLKNVLEEGSKLEEFNELELSPEDKELLEYLQQTKAKITVVGCGGAGNNTITRLKMEGIEGAKTVAINTDAQQLIRTKADKKILIGKKLTRGLGAGGNPKIGEEAAKESAEEIKAAIQDSDMVFITCGLGGGTGTGSAPVVAEISKKIGALTVAVVTLPFVMEGKVRMKNAMEGLERLKQHTDTLVVIPNEKLFEIVPNMPLKLAFKVADEVLINAVKGLVELITKDGLINVDFADVKAVMNNGGLAMIGIGESDSEKRAKEAVSMALNSPLLDVDIDGATGALIHVMGPEDLTLEEAREVVATVSSRLDPNATIIWGATIDENLENTVRVLLVITGVQSRIEFTDTGLKRKKLELTGIPKI
notes: full-length FtsZ from Methanocaldococcus jannaschii, nucleotide-devoid; also called apo-MjFtsZ; MjFtsZ; source: prepared as reported [55]
B2: binds [3].

B3: full-length FtsZ from E. coli (natural protein, Escherichia coli, UniProt P0A9A6 1-383, looked up)
chain: MFEPMELTNDAVIKVIGVGGGGGNAVEHMVRERIEGVEFFAVNTDAQALRKTAVGQTIQIGSGITKGLGAGANPEVGRNAADEDRDALRAALEGADMVFIAAGMGGGTGTGAAPVVAEVAKDLGILTVAVVTKPFNFEGKKRMAFAEQGITELSKHVDSLITIPNDKLLKVLGRGISLLDAFGAANDVLKGAVQGIAELITRPGLMNVDFADVRTVMSEMGYAMMGSGVASGEDRAEEAAEMAISSPLLEDIDLSGARGVLVNITAGFDLRLDEFETVGNTIRAFASDNATVVIGTSLDPDMNDELRVTVVATGIGMDKRPEITLVTNKQVQQPVMDRYQQHGMAPLTQEQKPVAKVVNDNAPQTAKEPDYLDIPAFLRKQAD
notes: full-length FtsZ from Escherichia coli, wild-type protein; also called EcFtsZ; Escherichia coli FtsZ; source: purified as described [54]
B3: binds [3].
